According to ChEMBL document CHEMBL1128911 (Bioorg Med Chem Lett, 1996):

Assays:
[1] = target: Melatonin receptor; assay type: protein assay, Ovis aries
[2] = target: T1, Melatonin receptor (Homo sapiens) (UniProt P48039+P49286); assay: Compound was evaluated for agonistic activity against cAMP production stimulated by forskolin; Potential stimulation; assay type: functional; conditions: Ovis aries; filed as agonist
[3] = target: T1, Melatonin receptor (Homo sapiens); assay: Binding affinity against ovine pars tuberalis melatonin receptor using 2-[125I]- melatonin radioligand binding assay; assay type: protein assay; conditions: Ovis aries; target entry is the homologue from another species

| Ki [1] [nM] | Activity [2] | KH [3] [pM] | KL [3] [nM] | SMILES |
| --- | --- | --- | --- | --- |
| 130 |  |  |  | CC(=O)NCCc1cccc2ccc3c(c12)C(O)CO3 (stereo not given) |
| 62.2 | Agonist |  |  | CC(=O)NCCC1CCCc2cc3c(cc21)OCCO3 (stereo not given) |
| 0.216 |  |  |  | CC(=O)NCCc1cccc2ccc3c(c12)CCCO3 |
| 6.17 | Agonist |  |  | CC(=O)NCCC1CCCc2ccc3c(c21)CCCO3 (stereo not given) |
| 0.137 |  |  |  | CC(=O)NCCc1cccc2ccc3c(c12)C=CCO3 |
|  |  | 0.0069 | 1.2 | CC(=O)NCCc1cccc2ccc3c(c12)CC(C)O3 (stereo not given) |
| 13.9 |  |  |  | CC(=O)NCCc1cccc2ccc3c(c12)C(=O)CO3 |
